Laboratory results reported in ChEMBL document CHEMBL1208779, “Integrated ligand and structure based studies of flavonoids as fatty acid biosynthesis inhibitors of Plasmodium falciparum” (Bioorg Med Chem Lett, 2010).
Activity calls are given as the source filed them. No cut-off for these calls is given here.

Molecular target: T1, Enoyl-acyl-carrier protein reductase (Plasmodium falciparum) (UniProt Q965D5)
T1 sequence (whole entry): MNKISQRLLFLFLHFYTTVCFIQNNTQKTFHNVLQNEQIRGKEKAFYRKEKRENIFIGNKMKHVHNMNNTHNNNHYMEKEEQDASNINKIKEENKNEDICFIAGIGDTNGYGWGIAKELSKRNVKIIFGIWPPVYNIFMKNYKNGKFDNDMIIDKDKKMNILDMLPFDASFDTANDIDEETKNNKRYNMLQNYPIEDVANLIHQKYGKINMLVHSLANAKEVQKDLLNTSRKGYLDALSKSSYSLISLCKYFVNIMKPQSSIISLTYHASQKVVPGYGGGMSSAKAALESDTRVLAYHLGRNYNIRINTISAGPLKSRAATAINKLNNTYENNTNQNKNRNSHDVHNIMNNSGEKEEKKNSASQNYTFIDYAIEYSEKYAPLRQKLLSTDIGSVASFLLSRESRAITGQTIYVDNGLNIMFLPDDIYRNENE
Test: Inhibition of Plasmodium falciparum FabI at 100 uM

inhibition, inactive:
COc1ccc(-c2cc(=O)c3c(O)c(O)c(OC)cc3o2)cc1
O=c1cc(-c2ccccc2)oc2ccc(O)cc12
COc1cc2c(c(O)c1OC)C(=O)C[C@@H](c1ccc(O)cc1)O2
